Reference: ChEMBL document CHEMBL1201862, “PubChem BioAssay data set” (2004)
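Growth conditions: 96-well plates. Treatment: test compound, 48 hours, 5 concentrations. Analysis: linear interpolation between bracketing concentrations; unreached endpoints set to highest concentration. GI50 is the concentration that inhibits growth by half.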 The source made the active and inactive calls. Cut-off read from the data, not from the text of the source: active = GI50 up to about 1.1 µM and inactive = higher.

Legend:
Assay in all cases: NCI-60 cell line screen, 48 h
[1] = system: NCI-H522
[2] = system: ACHN
[3] = system: SF-295
[4] = system: HT-29
[5] = system: U-251
[6] = system: NCI-H460
[7] = system: SF-539
[8] = system: A498
[9] = system: M14
[10] = system: SR
[11] = system: RXF 393
[12] = system: OVCAR-5
[13] = system: SNB-19
[14] = system: NCI-H23
[15] = system: CCRF-CEM
[16] = system: SK-OV-3
[17] = system: MDA-MB-435
[18] = system: T47D
[19] = system: SN12C

Measured: GI50

CSC1CC2C(CC1(C)SC)C2(C)C (stereo not drawn)
inactive: [1] > 100 µM | [2] > 100 µM | [3] 30.8 µM | [4] 38.8 µM | [5] 32.1 µM | [6] 23.9 µM | [7] > 100 µM | [8] > 100 µM | [9] 92 µM | [10] 30.8 µM | [11] 56.5 µM | [12] 40.8 µM | [13] 46.9 µM | [14] 61.7 µM | [15] 28.2 µM | [16] 39.9 µM

COC(=O)c1c2c(cc3c1CC1(Cc4cc5c(cc4C1)CCC5)C3)CCC2
inactive: [1] > 100 µM | [2] > 100 µM | [3] > 100 µM | [4] > 100 µM | [5] > 100 µM | [6] > 100 µM | [7] > 100 µM | [8] > 100 µM | [9] > 100 µM | [10] > 100 µM | [17] 77.4 µM | [11] > 100 µM | [12] > 100 µM | [18] > 100 µM | [13] > 100 µM | [14] > 100 µM | [15] > 100 µM | [16] > 100 µM

CCCCN(CC)CC(C(C)=O)c1c(O)c2ccccc2oc1=O (stereo not drawn)
inactive: [1] > 100 µM | [2] > 100 µM | [3] > 100 µM | [4] > 100 µM | [5] > 100 µM | [6] > 100 µM | [7] > 100 µM | [8] > 100 µM | [9] > 100 µM | [10] > 100 µM | [11] > 100 µM | [12] > 100 µM | [13] > 100 µM | [19] > 100 µM | [14] 15.4 µM | [15] > 100 µM | [16] > 100 µM

COc1cc2c3c([nH]c2c(OC)c1OC)CCN(Cc1ccccc1)C3
inactive: [1] > 100 µM | [2] 47.8 µM | [3] 30.8 µM | [4] 11.4 µM | [5] 31.8 µM | [6] 14.9 µM | [7] 17.7 µM | [8] 22.3 µM | [9] 14.1 µM | [17] 15.6 µM | [11] > 100 µM | [12] 23.8 µM | [18] 24.8 µM | [13] 3.07 µM | [19] 45.6 µM | [14] 33.1 µM | [15] 17.7 µM

CC(=O)c1c2c(cc3c1CC1(Cc4cc5c(cc4C1)CCCC5)C3)CCCC2
inactive: [1] 20.9 µM | [2] 6.49 µM | [3] 37.2 µM | [4] 50.9 µM | [5] > 100 µM | [7] > 100 µM | [8] 56.6 µM | [9] > 100 µM | [10] 2.05 µM | [17] 16.9 µM | [11] > 100 µM | [12] > 100 µM | [18] > 100 µM | [19] > 100 µM | [14] 68.5 µM | [16] > 100 µM

[N-]=[N+]=Nc1c(Cc2ccccc2)c(Cl)nc2ccccc12
inactive: [1] 27.5 µM | [2] 25.1 µM | [3] 22.2 µM | [4] 31.6 µM | [6] 35.4 µM | [7] 21.7 µM | [8] 26.2 µM | [9] 20.8 µM | [17] 13.6 µM | [11] 15.7 µM | [12] 31 µM | [18] 32.6 µM | [13] 19.1 µM | [19] 23.6 µM | [14] 28.8 µM | [15] 39.8 µM | [16] 53 µM

COc1cc(/C=C2\NC(=S)C3Cc4c(OC)c(C)c(OC)c(OC)c4C2N3C)c(OC)c(C)c1OC (stereo not drawn)
inactive: [1] 20 µM | [2] 48.2 µM | [3] 50.5 µM | [4] 61.4 µM | [5] 45.1 µM | [6] 14.9 µM | [7] > 100 µM | [8] 63.5 µM | [9] 42.8 µM | [10] 10.4 µM | [11] 24.7 µM | [12] > 100 µM | [13] 65.3 µM | [19] > 100 µM | [14] 86.1 µM | [15] 38.7 µM | [16] > 100 µM

O=C(O)C1C2C=CC(C2)C1c1ccccc1 (stereo not drawn)
inactive: [2] > 100 µM | [3] > 100 µM | [4] > 100 µM | [5] > 100 µM | [6] > 100 µM | [7] > 100 µM | [8] > 100 µM | [9] > 100 µM | [10] > 100 µM | [17] > 100 µM | [11] > 100 µM | [12] > 100 µM | [18] > 100 µM | [13] > 100 µM | [19] > 100 µM | [14] > 100 µM | [15] > 100 µM | [16] > 100 µM

COC1(OC)c2no[n+]([O-])c2C(OC)(OC)c2c1no[n+]2[O-]
inactive: [1] 21.7 µM | [2] 19.5 µM | [3] 35.7 µM | [4] 17.3 µM | [6] 26.7 µM | [7] 18.3 µM | [8] 19.1 µM | [9] 12.3 µM | [10] 4.38 µM | [17] 17.3 µM | [11] 26.1 µM | [12] 21.3 µM | [18] 21.8 µM | [13] 24.5 µM | [19] 20.4 µM | [14] 11.4 µM | [15] 4.19 µM

COC1(OC)N=C(N)C2(C#N)C(C)CC(=O)N(N(C)C)C12C#N (stereo not drawn)
inactive: [1] > 100 µM | [2] > 100 µM | [3] > 100 µM | [4] > 100 µM | [5] > 100 µM | [7] > 100 µM | [8] > 100 µM | [9] > 100 µM | [10] > 100 µM | [17] > 100 µM | [11] > 100 µM | [12] > 100 µM | [18] > 100 µM | [13] > 100 µM | [19] > 100 µM | [14] > 100 µM | [15] > 100 µM | [16] > 100 µM

Cc1ccccc1/N=N/c1c(-c2ccccc2)nn(C(=O)CC(=O)Nc2cccc(Cl)c2)c1-c1ccccc1
inactive: [1] > 10 µM | [2] 23 µM | [3] 22 µM | [4] 15.3 µM | [5] 13.7 µM | [6] 19.6 µM | [7] 24.2 µM | [8] 19 µM | [9] 22.1 µM | [10] 9.1 µM | [11] 19.9 µM | [12] 16.7 µM | [13] 36.4 µM | [19] 15.8 µM | [14] 20.1 µM | [15] 15.8 µM | [16] 27.7 µM

COc1ccc(-c2cc(-c3ccco3)c(C#N)c(=O)n2C2OC(OC(=O)c3ccccc3)C(OC(=O)c3ccccc3)C2OC(=O)c2ccccc2)cc1 (stereo not drawn)
inactive: [1] 63.5 µM | [2] > 100 µM | [3] 50.2 µM | [4] > 100 µM | [5] 33.1 µM | [6] > 100 µM | [7] > 100 µM | [8] > 100 µM | [9] > 100 µM | [10] > 100 µM | [11] 14.4 µM | [12] > 100 µM | [13] 62.5 µM | [19] > 100 µM | [14] > 100 µM | [15] > 100 µM

COc1cc2c(cc1OC)[C@H]1C(COC(=O)c3ccccc3)CS/C(=N/c3ccccc3)N1CC2 (stereo partly drawn)
inactive: [1] 2.34 µM | [2] > 100 µM | [3] > 100 µM | [4] 8.24 µM | [5] 24.3 µM | [6] 91.8 µM | [7] > 100 µM | [8] 48.9 µM | [9] > 100 µM | [10] 5.71 µM | [11] 13.3 µM | [12] 3.54 µM | [13] 21 µM | [19] > 100 µM | [14] 5.9 µM | [15] > 100 µM | [16] > 100 µM

COc1ccc(C(OCC2OC(n3ccc(NC(=O)c4ccccc4)nc3=O)C(O)C2O)(c2ccccc2)c2ccccc2)cc1 (stereo not drawn)
inactive: [1] 2.48 µM | [2] 2.9 µM | [3] 1.95 µM | [4] 1.53 µM | [5] 1.92 µM | [6] 1.98 µM | [7] 2.34 µM | [8] 1.62 µM | [9] 2.03 µM | [10] 2.39 µM | [17] 2.63 µM | [11] 2.97 µM | [12] 2 µM | [18] 3.54 µM | [13] 3.44 µM | [19] 1.82 µM | [14] 1.32 µM | [15] 2.26 µM | [16] 7.28 µM

C[C@@H]1C[C@@H]2C(=O)N(c3ccccc3)C(=O)[C@@H]2c2[nH]c3ccc(Br)cc3c21
inactive: [1] 24 µM | [2] 45.1 µM | [3] 32.4 µM | [5] 13.5 µM | [6] 42.3 µM | [7] 65.8 µM | [8] 68.4 µM | [9] 75.2 µM | [10] 42 µM | [11] 43.4 µM | [12] > 100 µM | [13] 29.6 µM | [19] 41 µM | [14] 89.7 µM | [15] > 100 µM | [16] 22.3 µM

COc1ccccc1/C=N/C12CC3CC(CC(C3)C1)C2
inactive: [1] > 100 µM | [2] > 100 µM | [3] > 100 µM | [4] > 100 µM | [5] > 100 µM | [6] > 100 µM | [7] > 100 µM | [8] > 100 µM | [9] > 100 µM | [10] > 100 µM | [11] > 100 µM | [12] > 100 µM | [13] > 100 µM | [19] > 100 µM | [14] > 100 µM | [15] > 100 µM | [16] > 100 µM
